How the values were obtained:
STAT-6 = assay: RWE-induced STAT-6 phosphorylation in mouse lung epithelium (immunostaining); assay type: in vivo; conditions: RWE-sensitized and challenged mice, fidarestat 7 mg/kg body wt/day in drinking water, 20 h after challenge
Experimental: FIGS. 9A-9B. AR inhibition prevents phosphorylation of STAT-6 in mouse lung epithelium. The mice were sensitized and challenged with PBS or RWE, without or with AR inhibitor and 20 h later lungs were perfused and fixed with 4% paraformaldehyde, embedded in paraffin, and sectioned to […]. The sections were immunostained with p-STAT-6 specific antibodies using immunofluoroscence secondary antibodies (A) or DAB-based HRP conjugated antibodies counterstained with hematoxylin and eosin (B). Photomicrographs were acquired by fluorescence or light microscopy. A representative field for each group is shown (magnification: 200×). […] RWE, ragweed pollen extract; ARI, aldose reductase inhibitor.
Wild type C57BL/6 and Balb/cJ mice were purchased from Harlan Sprague-Dawley (San Diego, Calif., USA) and AR null mice on C57BL/6 background were bread by us at Animal resource center, UTMB, Galveston, Tex. Six-eight weeks old female mice were sensitized with RWE as previously described (Hwang et al., FASEB J. 19: 795-797, 2005). […]
Approximately 20 h after RWE-challenge, mice are killed, and their lungs perfused and fixed with 4% paraformaldehyde, embedded in paraffin, and 5 μm sections were obtained. […] Photomicrographs were acquired by a Photometrix CoolSNAP Fx camera mounted on a NIKON Eclipse TE 200 UV microscope using fluorescence or bright-field microscopy, respectively.

[1] = system: airway epithelial cell monolayer (SAEC at ALI); assay: Air-liquid interface culture: IL-13-induced loss of cilia and goblet cell metaplasia (H&E, PAS, β-tubulin and Muc5AC immunostaining); assay type: cell-based, human
Experimental: FIGS. 4A-4B. AR inhibition prevents IL-13-induced loss of cilia and β-tubulin in airway epithelial cell monolayer. Approximately 8.5×10^4 SAEC were seeded per 12 mm diameter PET transparent insert and cultured for 7 days in differentiation media supplied from both lower and upper sides followed by culture on ALI for 11 days for differentiation into ciliated cells. The monolayer was treated with AR inhibitor for overnight and stimulated with IL-13 for 48 h. The monolayers on the membrane inserts were fixed for 24 h in z-fix (10% buffered formalin with zinc) at 4° C., paraffin embedded and […] sections were cut. (A) The H&E stained sections were examined under the light microscope; magnification 400×. […] (B) Immunohistochemistry using β-tubulin antibodies was performed on the sections. Dark brown staining in the monolayer corresponds to cilia axoneme β-tubulin. Arrows show loss of β-tubulin as the ciliated cells transform into goblet cells. A representative photomicrograph has been shown (n=4); magnification 400×. FIGS. 5A-5B. AR inhibition prevents IL-13-induced goblet cell metaplasia and expression of Muc5AC in airway epithelial monolayer. (A) The well-differentiated airway epithelial cells at air-liquid interface (ALI) were incubated with IL-13 for 48 h without or with AR inhibitor, fidarestat. The monolayer was fixed as described and immunohistochemistry using Muc5AC antibodies was performed on the sections. A representative photomicrograph is shown (n=4); magnification 400×. […] (C) The airway epithelial monolayer was incubated with IL-13 submerged in basal medium for 48 h in the absence and presence of AR inhibitor, fidarestat. The culture medium was collected from the top chamber and utilized for determination of Muc5AC by an ELISA, (n=4); *p<0.005 vs Control; **p<0.01 vs IL-13. For air-liquid interface (ALI) culture, SAEC were seeded at 8.5×10^4 cells/12-mm-diameter PET transparent insert with […] pores (12-well millicell culture insert; Millipore) and pre-coated with rat tail collagen type-1 (Sigma-Aldrich). The cells were grown submerged in the differentiation medium as described earlier by Zhen et al. (Am J Respir Cell Mol Biol 36: 244-253, 2007). The differentiation medium contained a 1:1 mixture of DMEM and small airway epithelial growth medium supplemented as described above, except that gentamycin sulfate, amphotericin B, and triiodothyronine were replaced with 1% penicillin/streptomycin, and 50 nM all-trans retinoic acid. The SAEC were maintained submerged for the first 7 days, after which the apical medium was removed and an air-liquid interface culture was established. […] The stained sections were analyzed and representative fields were photographed using a Photometrix CoolSNAP Fx camera mounted on a NIKON Eclipse TE 200 UV microscope. […]

## NC(=O)[C@@H]1C[C@]2(NC(=O)NC2=O)c2cc(F)ccc2O1 [fidarestat, (2S,4S)-2-aminoformyl-6-fluoro-spiro[chroman-4,4′-imidazolidine]-2′,5′-dione]
STAT-6
  RWE-induced phospho-STAT-6 staining in lung epithelium: prevented by AR inhibition
[1]; IL-13 48 h, Muc5AC immunostaining
  decrease in number of Muc5AC positive cells: ~70%
[1]; fidarestat 10 μM overnight, IL-13 25 ng/ml 48 h
  ciliated morphology (β-tubulin immunostaining) after IL-13: preserved the ciliated morphology
[1]; inhibitor added prior to IL-13 challenge, 48 h, data not shown
  differentiation of airway cells into goblet cells (PAS staining): prevented the airway cells from differentiating into goblet cells
[1]; inhibitor alone, no IL-13
  toxic effects of AR inhibitor alone on monolayer of ciliated cells: no toxic effects
